Values of other authors in patent US20040224916A1 (priority 2003, published 2004).
Like-named read-outs stand apart in the source and are kept apart here.

What was measured:
HIV-1 = conditions: in vitro, with agents acting at steps other than reverse transcription, including recombinant soluble CD4, castanospermine, recombinant interferon-α
[1] = dogs and rhesus monkeys

Structure (SMILES) | antiviral activity in combination (HIV-1) | effectiveness of S-configuration (at phosphorus) diastereomer relative to R-configuration diastereomer (HIV) [fold] | effectiveness relative to tenofovir against HIV in culture (HIV; as stated in b46) [times] | effectiveness relative to tenofovir against HIV in culture (HIV; as stated in b47) [fold] | stability in plasma [1]
Cc1cn([C@H]2C[C@H](N=[N+]=[N-])[C@@H](CO)O2)c(=O)[nH]c1=O [AZT, 3′-azido, 3′-deoxythymidine] | synergistic antiviral activity |  |  |  | 
CC(C)OC(=O)[C@H](C)N[P@](=O)(CO[C@H](C)Cn1cnc2c(N)ncnc21)Oc1ccccc1 [GS-7340, 9-[(R)-2-[[(S)-[[(S)-1-(isopropoxycarbonyl)ethyl]amino]phenoxyphosphinyl]methoxy]propyl]adenine] |  | 10 | 1000 | 100 | stable in plasma
